# Data from ChEMBL document CHEMBL1149858, “Degradation-promoters of cellular inhibitor of apoptosis protein 1 based on bestatin and actinonin” (Bioorg Med Chem, 2008).
# Activity calls are given as the source filed them. The rule behind the calls is not given here.
# Tests used:
# [1] = molecular target: Baculoviral IAP repeat-containing protein 2 (Homo sapiens, UniProt Q13490); assay: Promotion of flag-tagged cIAP1 degradation in human HT1080 cells assessed as decrease in cIAPI production after 3 hrs; assay type: cell-based, HT-1080
# Baculoviral IAP repeat-containing protein 2, sequence (Q13490 whole entry): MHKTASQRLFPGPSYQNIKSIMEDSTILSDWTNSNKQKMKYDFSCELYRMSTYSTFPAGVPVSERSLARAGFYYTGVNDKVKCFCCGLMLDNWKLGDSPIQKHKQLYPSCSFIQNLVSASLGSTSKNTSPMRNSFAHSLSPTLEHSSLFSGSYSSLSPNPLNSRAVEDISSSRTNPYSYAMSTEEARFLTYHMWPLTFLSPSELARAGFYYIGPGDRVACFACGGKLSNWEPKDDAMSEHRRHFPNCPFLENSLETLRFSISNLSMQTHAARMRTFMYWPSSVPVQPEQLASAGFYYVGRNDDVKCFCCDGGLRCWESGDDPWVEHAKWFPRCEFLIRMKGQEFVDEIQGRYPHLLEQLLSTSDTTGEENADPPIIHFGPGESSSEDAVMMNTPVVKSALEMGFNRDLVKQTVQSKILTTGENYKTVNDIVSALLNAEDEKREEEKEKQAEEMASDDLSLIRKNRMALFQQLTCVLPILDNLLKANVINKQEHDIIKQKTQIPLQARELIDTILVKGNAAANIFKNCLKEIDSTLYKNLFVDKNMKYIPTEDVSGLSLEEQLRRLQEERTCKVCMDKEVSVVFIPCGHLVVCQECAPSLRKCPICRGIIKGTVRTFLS
# [2] = tested on: HT-1080; assay: Enhancement of anti-Fas antibody CH11-induced apoptosis of human HT1080 cells at 30 uM after 24 hrs; assay type: functional, cell-based
# [3] = tested on: HT-1080; assay: Enhancement of actinomycin D-induced apoptosis of human HT1080 cells at 10 uM; assay type: functional, cell-based
# [4] = tested on: HT-1080; assay: Enhancement of cisplatin-induced apoptosis of human HT1080 cells at 10 uM; assay type: functional, cell-based
# [5] = tested on: HT-1080; assay: Enhancement of etoposide-induced apoptosis of human HT1080 cells at 10 uM; assay type: functional, cell-based
# [6] = tested on: HT-1080; assay: Enhancement of camptothecin-induced apoptosis of human HT1080 cells at 10 uM; assay type: functional, cell-based
Compound,IC50 [1] [µM],Activity ([1]; HT-1080),Activity [2],Activity [3],Activity [4],Activity [5],Activity [6]
CCCCC[C@H](CC(=O)NO)C(=O)N[C@H](C(=O)OC)C(C)(C)C,> 20,,,,,,
COC(=O)[C@H](CC(C)C)NC(=O)[C@H](N)CC(=O)NO,,inactive,,,,,
COC(=O)[C@H](CC(C)C)NC(=O)[C@@H](O)[C@H](N)Cc1ccccc1,,,Active,Active,Active,Active,Active
CCCCC[C@H](CC(=O)NO)C(=O)N[C@@H](C)C(=O)OC,,,,Active,Active,Active,Active
